Test results published in US5861387A, “Controlled release systems and low dose androgens” (Endorecherche Inc., priority 1995, dated 1999).
Converted amounts (≈) assume the structure as drawn. Like-named read-outs stand apart in the source and are kept apart here.

Columns and labels:
antibody 144A = assay: MPA radioimmunoassay, specificity of antibody 144A; type: binding, rabbit
Source text: Antibody 144A was raised in rabbits against 17-hydroxyprogesterone-3-0-carboxymethyloxime-BSA. The labeled steroid used in the radioimmunoassay (RIA) was methyl-17α-hydroxyprogesterone acetate, 6α-[1,2-^3 H(N)]- obtained from NEN (CAT NO: NET 480) while the reference preparation was medroxyprogesterone acetate (MPA) obtained from Steraloids. The assay buffer used was 0.1% gelatin in 0.1M sodium phosphate, 0.15M sodium chloride, 0.1% sodium azide, pH 7.2. The extraction solvent mixture was ethyl ether-acetone (9:1, v:v) [EEA] while the LH-20 chromatography solvent mixture was iso-octane: toluene: methanol (90:5:5;v:v:v) [IOTH].
One ml of plasma was extracted twice with 5 ml of EEA. The extracts were evaporated to dryness with nitrogen and the remaining residue was dissolved in one ml of IOTH. The extracts were then subjected to LH-20 chromatography on […] columns (Coming CAT NO: 05 722A) filled with 2 g of LH-20 (Pharmacia). The gel was washed with 30 ml of IOTH before addition of one ml of sample and elution with IOTH. The first 6 ml were discarded. The following 10, 16.5 and 27.5 ml of eluent were fraction I (progesterone), II (MPA) and III (17-LH-progesterone), respectively. Fraction II was evaporated to dryness and reconstituted in 1.5 ml of assay buffer.
To each 12 x 75 mm borosilicate test tube was added: 0.2 ml containing 25,000 DPM of tritiated steroid, 0.5 ml of reference preparation ranging from 5 to 5000 pg/tube or 0.5 ml of extracted sample fraction II, 0.2 ml of antiserum 144A diluted 1/5000 or 0.2 ml of assay buffer to account for non specific binding. The tubes were then incubated overnight at 4° C. Then, 0.2 ml 2% charcoal Norit-A, 0.2% Dextran T-70 diluted in water was added. The tubes were then shaken gently and, after 10 min, they were centrifuged at 2000 x g for 10 min. The supernatant was mixed with 8 ml of Formula-989 (NEN: NEF-989) and the radioactivity was counted in a β-counter.

[1] = tested on: hypocalcemic effect of calcitonin; conditions: castrated rats; cited from earlier work
masculinizing activity = conditions: low blood concentrations; cited from earlier work
bone [2] = conditions: in vivo; cited from earlier work
bone [3] = conditions: cited from earlier work
ventral prostate = conditions: rat, in vivo; cited from earlier work
endometrial cancer = conditions: high dose; cited from earlier work
pituitary AR [4] = conditions: rat, in vivo; cited from earlier work
pituitary AR [5] = conditions: in vivo; cited from earlier work
[6] = tested on: estrogen binding in the endometrium; conditions: oral, follicular phase; cited from earlier work
breast cancer = conditions: high doses, unselected breast cancer patients; cited from earlier work
[7] = cited from earlier work
[8] = Stability to gamma sterilization (SEC, viscosity); type: physicochemical; conditions: 2.2 Megarads
Source text: FIGS. 10A and 10B show, in (A), "the variation of the different parameters" [M(n-1), Mn, Mw, Mz,M(z+1)] characteristics of the molecular mass of 50:50 poly[DL-lactide-co-glycolide] following exposure to the indicated levels of gamma irradiation (Mrad); and, in (B), the variation of the polydensity (Mw/Mn) versus the level of gamma irradiation (Mrad).
Before injection, the microspheres were sterilized by exposure to 2.2 Megarads of gamma radiation achieved with a Cobalt-60 source (Gammacell 200). The stability of MPA was checked by steric exclusion chromatography (SEC) while the stability of the polymer was analyzed by SEC using polystyrene standards for calibration and by the modification of the relative viscosity using a Ubbelohde capillary viscometer.
Samples of batch MPA-MB-V have been exposed to different amounts of gamma radiation (0,1.1, 2.2 Megarads) and the molecular mass distribution parameters [M(n-1), Mn, Mw, Mz, M(z+1)] (see FIG. 10A) as well as their polydispersity (Mw/Mn) (FIG. 10B) were measured.

[9] = tested on: ZR-75-1 human breast cancer cells; conditions: cited from earlier work
kidney = conditions: mouse, in vivo; cited from earlier work
endometriosis = conditions: high dose, 6 months, cited from earlier work
bone resorption = conditions: in vivo; cited from earlier work
bone [10] = conditions: in vivo; cited from earlier work; remark: listed apart in the source

In the case of `C[C@]12CC[C@H]3[C@@H](CCC4=CC(=O)CC[C@@]43C)[C@@H]1CC[C@@H]2O` [testosterone], the “cross-reactivity with antibody 144A” value (antibody 144A) is listed as “less than 0.1%”, the “hypocalcemic effect of calcitonin” value [1] is listed as “increases the hypocalcemic effect of calcitonin” and the masculinizing activity (masculinizing activity) is listed as “considerable masculinizing activity even at low blood concentrations”. The “overall quantity of bone” value (bone [2]) was “increases the overall quantity of bone”, the bone histomorphometry (bone [3]; hypogonadal males) was “increases in relative osteoid volume, total osteoid surface, linear extend of bone formation and bone mineralization” and the “nitrogen, calcium and phosphate balance” value (bone [3]; in vivo) was “positive nitrogen, calcium and phosphate balance”. The “osteoid surfaces and beam width” value (bone [3]; in vivo) was “increase osteoid surfaces and beam width” and the bone formation (bone [3]; men with primary hypogonadism) was “increases bone formation”.

In the case of `CC(=O)O[C@]1(C(C)=O)CC[C@H]2[C@@H]3C[C@H](C)C4=CC(=O)CC[C@]4(C)[C@H]3CC[C@@]21C` [MPA, 6-alpha-methyl,17-alpha-acetoxy progesterone], the androgenic activity (ventral prostate) is given as “exhibits androgenic activity”, the “ED50 value (RIA)” value (antibody 144A; MPA radioimmunoassay) is given as 0.315 ng/mL (≈ 0.815 nM) and the “treatment of endometrial cancer” value (endometrial cancer) is given as “successfully used”. For the same compound, the “treatment of endometrial carcinoma compared with Tamoxifen” value (endometrial cancer) was “success similar to that of Tamoxifen”, the “effect on gonadotropin secretion” value (pituitary AR [4]) was “inhibitory effect” and the “effect on gonadotropin secretion” value (pituitary AR [5]) was “inhibitory effect”. The “level of estrogen binding in the endometrium” value [6] was “decrease in the level of estrogen binding”, the “overall clinical response rate” value (breast cancer) was 40% and the virilizing symptoms ([7]; acne, hirsutism) was “seldom causes significant virilizing symptoms”. The adrenal function ([7]; human, in vivo) was “Suppression of adrenal function”, the glucocorticoid-like side effects ([7]; human, in vivo) was “Cushingoid syndrome, euphoria and subjective pain relief” and the “stability to gamma radiation” value [8] was “does not damage MPA”. For the same compound, the “concentration of maximal inhibitory action on human breast cancer cell growth” value [9] was 1 nM, the “dose required for glucocorticoid action relative to maximal growth inhibition” value [9] was “approximately 1000 fold” and the “mechanism of growth inhibition of ZR-75-1 cells” value [9] was “mainly due to the androgenic properties of the compound”. The androgenic activity (kidney) was “exhibits androgenic activity”, the partial resolution (endometriosis; placebo 6%) was 13 % of subjects and the “resolution of the disease” value (endometriosis; placebo 12%) was 50 % of the patients.

In the case of `CCCCCCCCCC(=O)O[C@H]1CC[C@H]2[C@@H]3CCC4=CC(=O)CC[C@@H]4[C@H]3CC[C@]12C` [nandrolone decanoate], the bone resorption (bone resorption) is given as “reduced bone resorption”, the bone mass (bone [10]) is given as “increased bone mass” and the “bone resorption, osteoporotic women” value (bone [10]) is given as “reduced bone resorption”.
